Here are results for 13 molecules from patent US7981903B2, “2-[2-{phenylamino}-1H-pyrrolo[2,3-D]pyrimidin-4-yl)amino] benzamide derivatives as IGF-1R inhibitors for the treatment of cancer” (GlaxoSmithKline LLC, priority 2007, dated 2011).

The structures appear in SMILES notation. Some results are limits rather than exact numbers.

One assay has as its target T1, human IGF1R (hIGF1R) (Homo sapiens, UniProt P08069).
T1 construct: containing amino acid residues 957-1367 of human IGF1R; made in house; host or cells: Sf9 cells (baculovirus)
Description: TR-FRET kinase assay of purified hIGF1R. The assay is classed as biochemical. Particulars: activated hIGF1R 0.5 nM, 10 μM ATP, values given as pIC50 category, read-out: IGF-1R pIC50 (converted). For orientation: In TR-FRET formats the signal depends on donor and acceptor labels being close together.

Another assay concerns Colo205. Description: Inhibition of cell proliferation (CellTiter-Glo or InCell analyzer), Colo205. The assay is classed as cell-based. Particulars: Homo sapiens, COLO 205, 72 h / 3 days, values given as IC50 category. A digest of the protocol:
In one
For orientation: Cellular ATP, detected with luciferase, serves as a proxy for viable cell number.

Another assay relates to NCI-H929. Briefly: Inhibition of cell proliferation (CellTiter-Glo or InCell analyzer), NCI-H929. The assay is classed as cell-based. To be noted: Homo sapiens, 72 h / 3 days, values given as IC50 category. The gist of the method: In one
In assay [1] the target is T2, NIH-3T3 cells overexpressing human IGF-1R (Homo sapiens, UniProt P08069).
T2 construct: expressed in transfected cells; host or cells: NIH-3T3 (mouse fibroblasts)
Description: IGF-1R cellular autophosphorylation (DELFIA). The assay is classed as cell-based. The gist of the method: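 Receptor autophosphorylation measured by DELFIA, capturing IGF-1R or IRβ and detecting with europium anti-pTyr, reported as percent of IGF-1- or insulin-stimulated signal. Compounds (30 uM to 1.5 nM) added 2 h before ligand, then 15 min stimulation (IGF-1 30 ng/ml or insulin 3 ug/ml).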

T1 sequence (P08069 957-1367): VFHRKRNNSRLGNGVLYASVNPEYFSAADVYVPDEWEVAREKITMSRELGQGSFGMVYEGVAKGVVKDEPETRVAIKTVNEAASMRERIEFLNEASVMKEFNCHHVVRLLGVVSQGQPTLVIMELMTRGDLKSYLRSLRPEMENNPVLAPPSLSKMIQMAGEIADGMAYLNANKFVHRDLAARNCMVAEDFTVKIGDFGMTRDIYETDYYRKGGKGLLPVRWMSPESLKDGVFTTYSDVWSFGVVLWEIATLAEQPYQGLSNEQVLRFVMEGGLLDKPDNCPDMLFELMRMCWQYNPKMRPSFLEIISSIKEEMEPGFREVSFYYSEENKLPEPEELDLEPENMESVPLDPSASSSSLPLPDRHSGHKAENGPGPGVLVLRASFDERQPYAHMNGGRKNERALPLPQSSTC
T2 sequence (P08069 31-1367): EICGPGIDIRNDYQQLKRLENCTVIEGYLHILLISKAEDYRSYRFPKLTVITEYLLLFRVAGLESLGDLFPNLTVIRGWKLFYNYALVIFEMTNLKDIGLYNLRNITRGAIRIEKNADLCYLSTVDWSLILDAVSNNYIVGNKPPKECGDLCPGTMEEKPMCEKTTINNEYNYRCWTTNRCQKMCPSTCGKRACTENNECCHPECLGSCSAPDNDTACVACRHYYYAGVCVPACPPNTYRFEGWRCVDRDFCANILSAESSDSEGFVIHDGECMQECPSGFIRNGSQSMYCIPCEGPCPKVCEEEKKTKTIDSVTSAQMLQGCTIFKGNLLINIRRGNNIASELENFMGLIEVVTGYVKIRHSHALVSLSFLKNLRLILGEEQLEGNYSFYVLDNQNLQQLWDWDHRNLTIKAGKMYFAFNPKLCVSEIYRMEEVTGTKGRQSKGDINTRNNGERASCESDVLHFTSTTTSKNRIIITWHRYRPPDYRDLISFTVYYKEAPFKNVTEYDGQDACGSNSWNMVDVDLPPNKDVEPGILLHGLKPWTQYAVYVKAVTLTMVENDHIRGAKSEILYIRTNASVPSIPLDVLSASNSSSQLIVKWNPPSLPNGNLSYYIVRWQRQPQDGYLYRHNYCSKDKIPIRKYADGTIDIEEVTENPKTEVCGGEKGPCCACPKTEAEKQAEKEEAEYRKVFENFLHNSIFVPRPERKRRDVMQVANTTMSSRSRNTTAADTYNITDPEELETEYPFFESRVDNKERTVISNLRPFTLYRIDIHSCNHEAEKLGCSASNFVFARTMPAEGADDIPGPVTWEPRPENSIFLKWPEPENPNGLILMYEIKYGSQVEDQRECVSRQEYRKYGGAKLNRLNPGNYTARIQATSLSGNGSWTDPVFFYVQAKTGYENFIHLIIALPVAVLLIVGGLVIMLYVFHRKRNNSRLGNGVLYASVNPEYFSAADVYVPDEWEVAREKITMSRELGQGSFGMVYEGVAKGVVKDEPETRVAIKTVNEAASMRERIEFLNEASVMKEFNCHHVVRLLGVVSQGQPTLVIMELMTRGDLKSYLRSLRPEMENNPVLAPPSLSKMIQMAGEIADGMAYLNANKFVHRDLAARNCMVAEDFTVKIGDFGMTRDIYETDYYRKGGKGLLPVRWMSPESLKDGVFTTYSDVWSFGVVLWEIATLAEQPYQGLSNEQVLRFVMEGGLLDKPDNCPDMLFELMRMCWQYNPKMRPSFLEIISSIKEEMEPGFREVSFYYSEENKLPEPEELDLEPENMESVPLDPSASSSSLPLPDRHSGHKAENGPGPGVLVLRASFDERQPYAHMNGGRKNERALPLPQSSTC

Consider `COc1c(Nc2nc(Nc3cccc(F)c3C(N)=O)c3cc[nH]c3n2)ccc(N2CCN(C(C)C)CC2)c1F` [Example 51, 2-fluoro-6-[(2-{[3-fluoro-4-[4-(1-methylethyl)-1-piperazinyl]-2-(methyloxy)phenyl]amino}-1H-pyrrolo[2,3-d]pyrimidin-4-yl)amino]benzamide], for which the IC50 on human IGF1R (hIGF1R) is 1.26 to 3.98 nM; in the assay with Colo205, 250 to 1000 nM; in the assay with NCI-H929 it was 250 to 1000 nM; in assay [1] it was more than 500 nM.

For `COc1cc2c(cc1Nc1nc(Nc3cccc(F)c3C(N)=O)c3cc[nH]c3n1)N(C(=O)CN)CC2` [Example 141, 2-fluoro-6-[(2-{[1-glycyl-5-(methyloxy)-2,3-dihydro-1H-indol-6-yl]amino}-1H-pyrrolo[2,3-d]pyrimidin-4-yl)amino]benzamide], the IC50 on human IGF1R (hIGF1R) was 1.26 to 3.98 nM; with Colo205, 250 to 1000 nM; in the assay with NCI-H929, 250 to 1000 nM; in assay [1], more than 500 nM.

Consider `COc1cc2c(cc1Nc1nc(Nc3cccc(F)c3C(N)=O)c3cc[nH]c3n1)CN(C(C)C)CC2` [Example 236, 2-fluoro-6-[(2-{[2-(1-methylethyl)-6-(methyloxy)-1,2,3,4-tetrahydro-7-isoquinolinyl]amino}-1H-pyrrolo[2,3-d]pyrimidin-4-yl)amino]benzamide], for which the IC50 at human IGF1R (hIGF1R) is 1.26 to 3.98 nM; in the assay with Colo205 it was 250 to 1000 nM; in the assay on NCI-H929, less than 250 nM; in assay [1], 100 to 500 nM.

Regarding `COc1cc2c(cc1Nc1nc(Nc3cccc(F)c3C(N)=O)c3cc[nH]c3n1)CN(C(=O)CN(C)C)CC2` [Example 123, 2-[(2-{[2-(N,N-dimethylglycyl)-6-(methyloxy)-1,2,3,4-tetrahydro-7-isoquinolinyl]amino}-1H-pyrrolo[2,3-d]pyrimidin-4-yl)amino]-6-fluorobenzamide], the IC50 was 1.26 to 3.98 nM on human IGF1R (hIGF1R), 250 to 1000 nM with Colo205, less than 250 nM with NCI-H929 and 100 to 500 nM in assay [1].

Consider `CCN(C)CC(=O)N1CCc2cc(OC)c(Nc3nc(Nc4cccc(F)c4C(N)=O)c4cc[nH]c4n3)cc21` [Example 166, 2-[(2-{[1-(N-ethyl-N-methylglycyl)-5-(methyloxy)-2,3-dihydro-1H-indol-6-yl]amino}-1H-pyrrolo[2,3-d]pyrimidin-4-yl)amino]-6-fluorobenzamide], for which the IC50 is 1.26 to 3.98 nM at human IGF1R (hIGF1R), 250 to 1000 nM in the assay with Colo205, less than 250 nM in the assay with NCI-H929 and less than 100 nM in assay [1].

Turning to `CNCC(=O)N1CCc2cc(OC)c(Nc3nc(Nc4cccc(F)c4C(N)=O)c4cc[nH]c4n3)cc21` [Example 142, 2-fluoro-6-[(2-{[1-(N-methylglycyl)-5-(methyloxy)-2,3-dihydro-1H-indol-6-yl]amino}-1H-pyrrolo[2,3-d]pyrimidin-4-yl)amino]benzamide], the IC50 is 1.26 to 3.98 nM on human IGF1R (hIGF1R), 250 to 1000 nM in the assay on Colo205, 250 to 1000 nM with NCI-H929 and less than 100 nM in assay [1].

With `COc1cc2c(cc1Nc1nc(Nc3cccc(F)c3C(=O)NC(C)C)c3cc[nH]c3n1)N(C(=O)CN(C)C)CC2` [Example 158, 2-[(2-{[1-(N,N-dimethylglycyl)-5-(methyloxy)-2,3-dihydro-1H-indol-6-yl]amino}-1H-pyrrolo[2,3-d]pyrimidin-4-yl)amino]-6-fluoro-N-(1-methylethyl)benzamide], the IC50 is 1.26 to 3.98 nM at human IGF1R (hIGF1R), 250 to 1000 nM in the assay with Colo205, 250 to 1000 nM in the assay on NCI-H929 and 100 to 500 nM in assay [1].

Turning to `COc1cc(N2CCN(C(C)C)CC2)c(F)cc1Nc1nc(Nc2cccc(F)c2C(N)=O)c2cc[nH]c2n1` [Example 48, 2-fluoro-6-[(2-{[5-fluoro-4-[4-(1-methylethyl)-1-piperazinyl]-2-(methyloxy)phenyl]amino}-1H-pyrrolo[2,3-d]pyrimidin-4-yl)amino]benzamide], the IC50 was 1.26 to 3.98 nM on human IGF1R (hIGF1R), 250 to 1000 nM in the assay with Colo205, less than 250 nM in the assay on NCI-H929 and 100 to 500 nM in assay [1].

Consider `CNC(=O)c1c(F)cccc1Nc1nc(Nc2cc3c(cc2OC)CCN3C(=O)CN2CCCC2)nc2[nH]ccc12` [Example 139, 2-fluoro-N-methyl-6-[(2-{[5-(methyloxy)-1-(1-pyrrolidinylacetyl)-2,3-dihydro-1H-indol-6-yl]amino}-1H-pyrrolo[2,3-d]pyrimidin-4-yl)amino]benzamide], for which the IC50 at human IGF1R (hIGF1R) was 1.26 to 3.98 nM; in the assay on Colo205, 250 to 1000 nM; in the assay with NCI-H929, less than 250 nM; in assay [1] it was less than 100 nM.

In the case of `COc1cc2c(cc1Nc1nc(Nc3cc(F)cc(F)c3C(=O)NC(C)C)c3cc[nH]c3n1)N(C(=O)CN(C)C)CC2` [Example 153, 2-[(2-{[1-(N,N-dimethylglycyl)-5-(methyloxy)-2,3-dihydro-1H-indol-6-yl]amino}-1H-pyrrolo[2,3-d]pyrimidin-4-yl)amino]-4,6-difluoro-N-(1-methylethyl)benzamide], the IC50 is 1.26 to 3.98 nM at human IGF1R (hIGF1R), more than 1000 nM in the assay on Colo205, more than 1000 nM in the assay on NCI-H929 and 100 to 500 nM in assay [1].

With `CCCN1CCC(c2ccc(Nc3nc(Nc4cc(F)c(F)cc4C(N)=O)c4cc[nH]c4n3)c(OC)c2)CC1` [Example 98, 4,5-difluoro-2-[(2-{[2-(methyloxy)-4-(1-propyl-4-piperidinyl)phenyl]amino}-1H-pyrrolo[2,3-d]pyrimidin-4-yl)amino]benzamide], the IC50 on human IGF1R (hIGF1R) was 0.251 to 1 nM; with Colo205, less than 250 nM; in the assay on NCI-H929 it was less than 250 nM; in assay [1], less than 100 nM.

Consider `COc1cc2c(cc1Nc1nc(Nc3ccc(F)c(F)c3C(N)=O)c3cc[nH]c3n1)N(C(=O)CN(C)C)CCC2` [Example 162, 6-[(2-{[1-(N,N-dimethylglycyl)-6-(methyloxy)-1,2,3,4-tetrahydro-7-quinolinyl]amino}-1H-pyrrolo[2,3-d]pyrimidin-4-yl)amino]-2,3-difluorobenzamide], for which the IC50 at human IGF1R (hIGF1R) was 1.26 to 3.98 nM; in the assay with Colo205 it was less than 250 nM; in the assay on NCI-H929, less than 250 nM; in assay [1], less than 100 nM.

As to `CNC(=O)c1c(F)cccc1Nc1nc(Nc2cc3c(cc2OC)CCCN3C(=O)CN2CCCCC2)nc2[nH]ccc12` [Example 217, 2-fluoro-N-methyl-6-[(2-{[6-(methyloxy)-1-(1-piperidinylacetyl)-1,2,3,4-tetrahydro-7-quinolinyl]amino}-1H-pyrrolo[2,3-d]pyrimidin-4-yl)amino]benzamide], the IC50 on human IGF1R (hIGF1R) is 1.26 to 3.98 nM; with Colo205, 250 to 1000 nM; in the assay on NCI-H929, less than 250 nM; in assay [1] it was less than 100 nM.
